Experimental data from patent publication US6232314A, “Arylalkylpiperazine compounds as antioxidants” (Monash University, priority 1996, dated 2001).

Assays:
[1] = system: polyamine sensitive binding site of the NMDA receptor complex; settings: Carter et al., Reynolds et al., Robinson et al.; cited from earlier work
[2] = target: NMDA receptor-ionophore complex (polyamine-sensitive ifenprodil binding site); assay: NMDA assay: competitive binding against [125I]ifenprodil in rat cortical membranes; settings: 30 min, 20° C., pH 7.7
Description: The NMDA receptor-ionophore complex consists of a number of interacting domains, including one for polyamines where ifenprodil binds to exert its non-competitive antagonism.
The purified material was stored in methanol at -20° C.
Incubations were for 30 min. at 20° C., in triplicate, employing 12 concentrations of competing drugs. Non-specific binding was defined with 10 mM spermine. Assays were terminated by rapid filtration through GF/B filter paper and washing.

[3] = Gotti et al., 1988; cited from earlier work
[4] = system: methamphetamine-induced loss of neostriatal tyrosine hydroxylase activity; settings: mice; Sonsalla et al., 1991; cited from earlier work

Structure (SMILES): CC(C(O)c1ccc(O)cc1)N1CCC(Cc2ccccc2)CC1 (stereo not shown) [ifenprodil]
- interaction with the polyamine sensitive site of the NMDA receptor complex [1]: interacting with the polyamine sensitive binding site of the NMDA receptor
- Ki [2]: 19.5 ± 1.2 µM
- neuroprotective properties / antiischaemic [3]: neuroprotective properties in models of neurodegeneration following ischaemia
- protection from methamphetamine-induced loss of neostriatal tyrosine hydroxylase activity [4]: protect mice from the methamphetamine-induced loss of neostriatal tyrosine hydroxylase activity
